Here are results for 11 compounds from article PMC8006714 (Chemical Communications (Cambridge, England), 2021).

Where “and” joins values, the source holds several entries; their conditions need not be identical. Identical values can stand only once. Entries after “also recorded” stand apart in the source; their conditions may differ. Like-named read-outs stand apart in the source and are kept apart here. Where only a bound is given, the exact number is not on record here.

For test [1], the target named is T1, SARS-CoV-2 M^pro (Severe acute respiratory syndrome coronavirus 2, UniProt P0DTD1). In words: biochemical. The format is biochemical. To be noted: for inhibition at a fixed 20 μM inhibitor concentration: LOPAC and API library screens; for M^pro inhibition at single concentrations (in words): 20, 50 and 100 µM β-lactam, 30 min or 60 min preincubation (Fig. S17).

In the next test the test system is M^pro. More on the design: method as in doi:10.1101/2020.05.28.120642. To be noted: read-out: reported IC50; cited from earlier work.
Test [2] has as its target T1, SARS-CoV-2 M^pro. In words: biochemical. In kind it is biochemical.
The target in test [3] is T1, SARS-CoV-2 M^pro. The format is binding. To be noted: for covalent modification of M^pro preincubated with N3 (active site selectivity): 1 μM M^pro preincubated with 3 μM N3, 20 μM inhibitor; for covalent modification of M^pro (protein observed SPE-MS): 20 μM inhibitor, 20 mM HEPES pH 7.5, 50 mM NaCl.
Where [4] appears, read: 30 min preincubation, SPE-MS dose response.
Where [5] appears, read: 60 min preincubation, SPE-MS dose response.

`CC(=O)OC[C@H]1O[C@@H]([S-])[C@H](OC(C)=O)[C@@H](OC(C)=O)[C@@H]1OC(C)=O.CCP(CC)CC.[Au+]` [Auranofin]: at SARS-CoV-2 M^pro [1], the “% Mpro inhibition at 20 µM” value came out at 100.0% and the “inhibition at a fixed 20 μM inhibitor concentration” value is given as at least 80%. In the test on M^pro, the half-inhibitory concentration (IC50) is around 500 nM.
With `CC(=O)OCC1=C(C(=O)[O-])N2C(=O)[C@@H](NC(=O)CCC[C@@H](N)C(=O)[O-])[C@H]2SC1.[Zn+2]` [Cephalosporin C zinc salt], on SARS-CoV-2 M^pro [1], the “% Mpro inhibition at 20 µM” value is 92.3% and the “M^pro inhibition (in words)” value is on record as “inhibited”. For the same compound, the “Hill slope” value on SARS-CoV-2 M^pro [2] (22 minutes preincubation, SPE-MS) was determined as 1.83.
`CC1(C)[C@H](C(=O)OCc2ccccc2)N2C(=O)[C@@H](NC(=O)COc3ccccc3)[C@H]2S1(=O)=O` [Compound 1, penicillin V sulfone C3 benzyl ester]: the “M^pro inhibition at single concentrations (in words)” value at SARS-CoV-2 M^pro [1] is listed as “moderate inhibition”. For the same compound, the Hill slope was found to be 1.4 ± 0.4 on SARS-CoV-2 M^pro [2] (setting [4]) and 1.6 ± 0.2 at SARS-CoV-2 M^pro [2] (setting [5]). The 50% inhibitory concentration (IC50) on SARS-CoV-2 M^pro [2] (IC50 (SPE-MS)) was ~1500 nM and 1500 nM and 900 nM. In addition, the “covalent modification of M^pro preincubated with N3 (active site selectivity)” value on SARS-CoV-2 M^pro [3] is recorded as “no reaction”. Besides, the “covalent modification of M^pro (protein observed SPE-MS)” value at SARS-CoV-2 M^pro [3] (1 μM M^pro) was “A single molecule 1 covalently modifies M^pro; also recorded: Covalent modification was observed”.
For the compound `COC1(NC(=O)Cc2ccccc2)C(=O)N2C1[S+]([O-])C(C)(C)C2C(=O)OCc1ccc([N+](=O)[O-])cc1` (stereo not shown) [Compound 2, C6-methoxy penicillin G sulfoxide C3 p-nitrobenzyl ester], on SARS-CoV-2 M^pro [1], the “M^pro inhibition at single concentrations (in words)” value is “moderate inhibition”. In addition, the Hill slope at SARS-CoV-2 M^pro [2] (setting [4]) is 2.2 ± 0.1; on SARS-CoV-2 M^pro [2] (setting [5]) it was 2.1 ± 0.1. Further, at SARS-CoV-2 M^pro [2] (IC50 (SPE-MS)), the IC50 was ~3500 nM and 3500 nM and 2100 nM. Also, the “covalent modification of M^pro preincubated with N3 (active site selectivity)” value on SARS-CoV-2 M^pro [3] is on record as “Minor further modification”. Also, the “covalent modification of M^pro (protein observed SPE-MS)” value at SARS-CoV-2 M^pro [3] (1 μM M^pro) is given as “does not efficiently modify M^pro through covalent reaction”. For the same compound, the “extent of covalent modification of M^pro” value on SARS-CoV-2 M^pro [3] (1 μM M^pro, 20 μM β-lactam) is below 10%.
Consider `Cc1cc(C(=O)N[C@@H](C)C(=O)N[C@H](C(=O)N[C@@H](CC(C)C)C(=O)N[C@H](/C=C/C(=O)OCc2ccccc2)C[C@@H]2CCNC2=O)C(C)C)no1` [Compound N3], for which the 50% inhibitory concentration (IC50) on SARS-CoV-2 M^pro [2] (IC50 (SPE-MS)) is 40 nM and 30 nM. In addition, the “covalent modification of M^pro preincubated with N3 (active site selectivity)” value at SARS-CoV-2 M^pro [3] is given as “one major binding event”. Moreover, the “covalent modification of M^pro (protein observed SPE-MS)” value at SARS-CoV-2 M^pro [3] (1 μM M^pro) is given as “modifies M^pro in a covalent manner; also recorded: more than one reaction with the Mpro monomer; also recorded: predominantly (but not exclusively) a single N3 adduct was observed”.
Turning to `O=c1c2ccccc2[se]n1-c1ccccc1` [Ebselen], the inhibition at 20 µM on SARS-CoV-2 M^pro [1] (read-out: % Mpro inhibition at 20 µM, library of FDA-approved small molecules, 20 µM compound, […] Mpro, 2.0 µM TSAVLQ/SGFRK-NH2) was determined as 99.1%. The “covalent modification of M^pro (protein observed SPE-MS)” value at SARS-CoV-2 M^pro [3] (1 μM M^pro) is listed as “covalently reacts multiple times with Mpro”; on SARS-CoV-2 M^pro [3] (1 μM M^pro, listed as ebselen), “modifies M^pro in a covalent manner; also recorded: time dependent modification of multiple residues”.
For the compound `Oc1ccc2ccccc2c1SSc1c(O)ccc2ccccc12` [IPA-3, 1,1’-Disulfanediyldinaphthalen-2-ol], the “inhibition at a fixed 20 μM inhibitor concentration” value at SARS-CoV-2 M^pro [1] was at least 80%. Moreover, at SARS-CoV-2 M^pro [1] (read-out: % Mpro inhibition at 20 µM), the inhibition at 20 µM is 99.1%. Further, the IC50 against SARS-CoV-2 M^pro [2] (IC50 (SPE-MS)) was ~100 nM and 70 nM. In addition, the “covalent modification of M^pro preincubated with N3 (active site selectivity)” value at SARS-CoV-2 M^pro [3] is reported as “multiple adducts observed with unmodified M^pro were diminished; also recorded: does not (at least substantially) covalently modify Mpro”. At SARS-CoV-2 M^pro [3] (1 μM M^pro), the “covalent modification of M^pro (protein observed SPE-MS)” value is reported as “reacts with Mpro at multiple positions”.
Turning to `O=C1C(SCCO)=C(SCCO)C(=O)c2ccccc21` [NSC 95397], on SARS-CoV-2 M^pro [1], the “% Mpro inhibition at 20 µM” value was 99.0%. Moreover, the “covalent modification of M^pro preincubated with N3 (active site selectivity)” value at SARS-CoV-2 M^pro [3] is listed as “does not selectively bind to the M pro active site”. The “covalent modification of M^pro (protein observed SPE-MS)” value on SARS-CoV-2 M^pro [3] (1 μM M^pro) is “reacts with Mpro at multiple positions”.
As to `Cc1ccc(S(=O)(=O)N[C@@H](CCCCN)C(=O)CCl)cc1.Cl` [TLCK, Nα-p-Toluenesulfonyl-L-lysine chloromethyl ketone hydrochloride], the “% Mpro inhibition at 20 µM” value at SARS-CoV-2 M^pro [1] was found to be 88.3%. The “covalent modification of M^pro preincubated with N3 (active site selectivity)” value at SARS-CoV-2 M^pro [3] was “does not react with TLCK”; at SARS-CoV-2 M^pro [3] (listed as Nα-p-toluenesulfonyl-L-lysine chloromethyl ketone), “substantial covalent modification was no longer observed”. The “covalent modification of M^pro (protein observed SPE-MS)” value at SARS-CoV-2 M^pro [3] (1 μM M^pro) is on record as “covalently reacts with M pro”.
On to `Cc1ccc(S(=O)(=O)N[C@@H](Cc2ccccc2)C(=O)CCl)cc1` [TPCK, N-p-Toluenesulfonyl-L-phenylalanine chloromethyl ketone], for which, on SARS-CoV-2 M^pro [1], the “% Mpro inhibition at 20 µM” value turned out to be 94.1%. Besides, the IC50 on SARS-CoV-2 M^pro [2] (pH 7.5, read-out: IC50 (SPE-MS)) was ~800 nM and 830 nM. Further, on SARS-CoV-2 M^pro [3], the “covalent modification of M^pro preincubated with N3 (active site selectivity)” value is “does not covalently modify M^pro in the presence of N3; also recorded: substantial covalent modification was no longer observed; also recorded: does not react with TPCK”. In addition, the “covalent modification of M^pro (protein observed SPE-MS)” value at SARS-CoV-2 M^pro [3] (1 μM M^pro) was “modifies M^pro in a covalent manner; also recorded: covalently reacts with Mpro”.
In the case of `[Cl-].[Cl-].[Zn+2]` [ZnCl2], the Hill slope on SARS-CoV-2 M^pro [2] is 2.23 and 2.07. At SARS-CoV-2 M^pro [2] (read-out: IC50), the IC50 is 340 nM and 370 nM.
